Tested on: GST1 gene
Assay: GST1 gene expression in the mesenteron after artificial diet containing gossypol
Assay type: in vivo, cotton bollworm
Details: 5-day old larvae, 1 day, artificial diet with 1 mg/g gossypol (FIG. 7A)
Protocol: FIG. 7A show the change in GST 1 gene expression in the mesenteron of 5-day old cotton bollworm with the same growth vigor 1 day after eating artificial diet containing 1 mg/g gossypol. Lane 1 and 2 are cotton bollworm eating artificial diet with or without 1 mg/g gossypol respectively.

Compound: Cc1cc2c(C(C)C)c(O)c(O)c(C=O)c2c(O)c1-c1c(C)cc2c(C(C)C)c(O)c(O)c(C=O)c2c1O [gossypol]
- GST1 gene expression in the mesenteron: no significant effect

— US8895805B2, “Method for modifying insect resistance of plants by utilizing RNAi technique” (Shanghai Institutes for Biological Sciences, Chinese …, priority 2006, dated 2014)
